# Results filed as inconclusive are left out. Calls of active or inactive are those of the source. How the calls were made is not given here.
# Test system: S. typhimurium/E. coli reverse mutation, colony counts
# Test: Bacterial reverse mutation test (aka Ames test) summary data
# How it was run: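 Revertant colony counts on plates, compared with untreated controls, after about two days of growth. Exposure with or without liver S9 (rat/hamster/mouse), dose range per strain, 20-min 37° C preincubation or direct plate incorporation. Strains: his⁻ Salmonella, trp⁻ E. coli WP2 uvrA pKM101.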
row,Structure (SMILES),outcome
1,O=C1OC(=O)c2c(Br)c(Br)c(Br)c(Br)c21,inactive; negative
2,Nc1ccc2ccccc2c1,active; positive
3,[Cl-].[Cl-].[Hg+2],inactive; negative
4,[Cl][In]([Cl])[Cl],inactive; negative
5,CCCCC(CC)COS(=O)(=O)O (centres undefined),inactive; negative
6,C=C(C)C(=O)OCC(Br)CBr (centres undefined),active; positive
7,CC(=O)OCc1ccco1,active; positive
8,CC(C)(c1cc(Br)c(O)c(Br)c1)c1cc(Br)c(O)c(Br)c1,inactive; negative
9,CCN(CC)C(=S)S[Te](SC(=S)N(CC)CC)(SC(=S)N(CC)CC)SC(=S)N(CC)CC,inactive; negative
10,Clc1ccc(N=Nc2ccc(Cl)c(Cl)c2)cc1Cl,active; positive
11,Cc1cc(Cl)ccc1O,inactive; negative
12,CCCCNCCCC,inactive; negative
13,Clc1cc2c(cc1Cl)Oc1cc(Cl)c(Cl)cc1O2,inactive; negative
14,O=C(O)C=Cc1ccc(O)c(O)c1,inactive; negative
15,Oc1cccc(Cl)c1,inactive; negative
16,ClC(Cl)C(Cl)(Cl)Cl,inactive; negative
17,O=C(Cl)C(Cl)Cl,active; positive
18,CC/C(=C(/CC)c1ccc(O)cc1)c1ccc(O)cc1,inactive; negative
19,Cc1cc(O)c(C(C)(C)C)cc1Sc1cc(C(C)(C)C)c(O)cc1C,inactive; negative
20,NC(=O)/C(=C\c1ccc([N+](=O)[O-])o1)c1ccco1,active; positive
21,CCO,inactive; negative
22,Nc1ccc(O)c(N)c1,active; positive
23,CC(C)(C)OO,active; positive
24,Cc1noc(NS(=O)(=O)c2ccc(N)cc2)c1C,inactive; negative
25,CC=CC=CC=O,active; positive

row,Structure (SMILES),outcome
1,C=CC(=O)NCNC(=O)C=C,active; positive
2,CC1=CC(=O)CC(C)(C)C1,inactive; negative
3,COc1ccc(C(c2ccc(OC)cc2)C(Cl)(Cl)Cl)cc1,inactive; negative
4,c1ccc2n[nH]nc2c1,active; weakly positive
5,CCCCNC(=O)n1c(NC(=O)OC)nc2ccccc21,inactive; negative
6,O=C(O)c1ccc(O)cc1O,inactive; negative
7,C[Si](C)(C)O[Si](C)(O[Si](C)(C)C)O[Si](C)(C)C,inactive; negative
8,O=Cc1c(Cl)cccc1Cl,inactive; negative
9,Cc1ccc(C(=O)O)cc1[N+](=O)[O-],active; positive
10,OCCN(CCO)CCO,inactive; negative
11,O=C1CSC(=S)N1,inactive; negative
12,CC(=O)Nc1ccc(C(=O)O)cc1,inactive; negative
13,CCCCCCCCCCCCCCCCCC(=O)O,inactive; negative
14,C=O,active; positive
15,O=C(O)CCCc1ccc(N(CCCl)CCCl)cc1,active; positive
16,CC(C)CN(CC(C)C)CC(C)C,inactive; negative
17,Cc1cn([C@H]2C=C[C@@H](CO)O2)c(=O)[nH]c1=O,active; weakly positive
18,OCCNCCO,inactive; negative
19,Cc1ccc2ccccc2c1,inactive; negative
20,Cc1ccc(Cl)cc1,inactive; negative
21,CCN(CC)c1ccc(N=O)c(O)c1,inactive; negative
22,O=C(O)C1C(C(=O)O)C2(Cl)C(Cl)=C(Cl)C1(Cl)C2(Cl)Cl (centres undefined),inactive; negative
23,CCC(=O)O,inactive; negative
24,CNC(=O)c1ccccc1,inactive; negative
25,CN(C)C,inactive; negative

row,Structure (SMILES),outcome
1,Nc1cc(S(=O)(=O)[O-])cc2cc(S(=O)(=O)[O-])c(N=Nc3ccc(-c4ccc(N=Nc5c(S(=O)(=O)[O-])cc6cc(S(=O)(=O)[O-])cc(N)c6c5[O-])c([O-])c4)cc3[O-])c([O-])c12.[Cu+2].[Cu+2].[Na+].[Na+].[Na+].[Na+],inactive; negative
2,O=Nc1ccc(O)cc1,active; weakly positive
3,[Cl-].[Cl-].[Sn+2],inactive; negative
4,CC(=O)c1c(C)c([N+](=O)[O-])c(C(C)(C)C)c([N+](=O)[O-])c1C,inactive; negative
5,CC(=O)OC/C=C(\C)CCC=C(C)C,inactive; negative
6,Brc1c(Br)c(Br)c(Oc2c(Br)c(Br)c(Br)c(Br)c2Br)c(Br)c1Br,inactive; negative
7,c1ccc(N=NNc2ccccc2)cc1,active; positive
8,C[C@@H]1Cc2c(Cl)cc(C(=O)N[C@@H](Cc3ccccc3)C(=O)O)c(O)c2C(=O)O1,inactive; negative
9,CC(=O)C=Cc1ccc2c(c1)OCO2,inactive; negative
10,C=C(C)C1CC=C(C)C(O)C1 (centres undefined),inactive; negative
11,COc1ccccc1[N+](=O)[O-],active; positive
12,CCCCCCCCCCCC(=O)O,inactive; negative
13,O=c1ccc2ccccc2o1,active; positive
14,Nc1cccc2c(N)cccc12,active; positive
15,C=C(C)C(=O)NCCCN(C)C,inactive; negative
16,O=P(Oc1ccccc1)(Oc1ccccc1)Oc1ccccc1,inactive; negative
17,CC(N)C(=O)O (centres undefined),inactive; negative
18,C=CCCCCCC,inactive; negative
19,O=[N+]([O-])c1ccc(Nc2ccc(O)cc2)c([N+](=O)[O-])c1,active; positive
20,O=[N+]([O-])c1ccc(Nc2ccccc2O)c([N+](=O)[O-])c1,active; positive
21,CC1=CC(=O)CC(C)(C)[C@@]1(O)/C=C/C(C)=C\C(=O)O,inactive; negative
22,CCOCCO,inactive; negative
23,C[C@H](CCC(=O)O)[C@H]1CC[C@H]2[C@@H]3CC[C@@H]4C[C@H](O)CC[C@]4(C)[C@H]3CC[C@]12C,inactive; negative
24,Nc1ccc([As](=O)(O)O)cc1,inactive; negative
25,N#[N+]c1ccc2c(S(=O)(=O)[O-])cccc2c1O,active; positive

row,Structure (SMILES),outcome
1,Nc1c(Cl)cc([N+](=O)[O-])cc1Cl,active; positive
2,Cc1cc(O)c2c(c1)C(=O)c1cccc(O)c1C2=O,active; weakly positive
3,CC(CCC(=O)O)(c1ccc(O)cc1)c1ccc(O)cc1,inactive; negative
4,O=C(Nc1cccc2c(=O)c3c(ccc4c5cc(NC(=O)c6ccccc6)c6c(=O)c7ccccc7c(=O)c6c5[nH]c43)c(=O)c12)c1ccccc1,inactive; negative
5,CCNc1cccc(O)c1,active; positive
6,ClC(Br)Br,active; weakly positive
7,O=c1cc(-c2ccc(O)cc2)oc2cc(O)cc(O)c12,inactive; negative
8,C=CC(=O)OCCBr,active; positive
9,COC(=O)CCC(=O)OC,inactive; negative
10,Brc1ccc(-c2ccccc2)cc1,inactive; negative
11,COCC1CO1 (centres undefined),active; positive
12,Cl[C@@H]1C2(Cl)C3C4[C@@H]5O[C@@H]5[C@H]5C3[C@@](Cl)(C2(Cl)Cl)[C@]1(Cl)[C@@H]45 (some centres undefined),active; positive
13,C=CC(=O)OCC(CO)(COCC(COC(=O)C=C)(COC(=O)C=C)COC(=O)C=C)COC(=O)C=C,inactive; negative
14,CC(C)CNCC(C)C,inactive; negative
15,COC(C)(C)C,inactive; negative
16,CN(C)CCCN1c2ccccc2Sc2ccc(Cl)cc21,inactive; negative
17,Nc1ccccc1Cl,inactive; negative
18,C=CC(=C)CCC=C(C)C,inactive; negative
19,FC(F)(F)c1ccccc1Cl,inactive; negative
20,CCCCOC(=O)c1ccc(N)cc1,inactive; negative
21,CCCCCCOC(=O)c1ccccc1C(=O)OCCCCCC,inactive; negative
22,Cc1c(N(C)C)c(=O)n(-c2ccccc2)n1C,active; weakly positive
23,Cc1cccc(OP(=O)(Oc2cccc(C)c2)Oc2cccc(C)c2)c1,inactive; negative
24,O=C(O)c1ccccc1[N+](=O)[O-],active; positive
25,Cc1cccc([N+](=O)[O-])c1N,active; positive

row,Structure (SMILES),outcome
1,CCC(C)(C)c1ccc(O)cc1,inactive; negative
2,CC(=O)C1(C)CC2=C(CCCC2(C)C)CC1C (centres undefined),inactive; negative
3,Cl/C=C\Cl,inactive; negative
4,NNC(N)=O,inactive; negative
5,C1CC2OC2CC1C1CO1 (centres undefined),active; positive
6,CCc1cccc(C)c1N,inactive; negative
7,CO/N=C(\C(=O)N[C@@H]1C(=O)N2C(C(=O)O)=C(COC(N)=O)CS[C@H]12)c1ccco1,inactive; negative
8,Cc1ccc([N+](=O)[O-])c(C)c1,active; positive
9,Clc1ccc(C(Cl)(Cl)Cl)c(Cl)c1,active; positive
10,O=C1[O][Bi][O]c2ccccc21,inactive; negative
11,COc1ccccc1O,inactive; negative
12,Nc1nc(=O)n([C@@H]2CS[C@H](CO)O2)cc1F,inactive; negative
13,COc1ccc(CN(CCN(C)C)c2ccccn2)cc1,inactive; negative
14,Nc1ccccc1C(=O)OCCc1ccccc1,inactive; negative
15,COP(=O)(OC)C(O)C(Cl)(Cl)Cl (centres undefined),active; weakly positive
16,COCCOCCOCCOC,active; positive
17,Oc1ccc2c(c1)OCO2,inactive; negative
18,Oc1cccc(Nc2ccccc2)c1,inactive; negative
19,CCOC(=O)CC,inactive; negative
20,COC(C)(C)CC(C)=O,inactive; negative
21,O=C1NS(=O)(=O)c2ccccc21,inactive; negative
22,CCCCCCCCCCCCCCCCCC(O)=[OH+].O.[Cl][Cr][Cl].[Cl][Cr][Cl],active; positive
23,COc1cc(S(=O)(=O)O)c(C)cc1N=Nc1c(O)ccc2cc(S(=O)(=O)O)ccc12,inactive; negative
24,CN(C)C(=O)Oc1ccc[n+](C)c1,inactive; negative
